Experimental data taken from article PMC8213057, “Targeting ALK2: An Open Science Approach to Developing Therapeutics for the Treatment of Diffuse Intrinsic Pontine Glioma” (Journal of Medicinal Chemistry, 2020).

Tests used:
ERK7/MAPK15 = target: T1, ERK7/MAPK15 (Homo sapiens, UniProt Q8TD08); conditions: 1 μM; Run 1, Run 2
T1 sequence (Q8TD08 1-544): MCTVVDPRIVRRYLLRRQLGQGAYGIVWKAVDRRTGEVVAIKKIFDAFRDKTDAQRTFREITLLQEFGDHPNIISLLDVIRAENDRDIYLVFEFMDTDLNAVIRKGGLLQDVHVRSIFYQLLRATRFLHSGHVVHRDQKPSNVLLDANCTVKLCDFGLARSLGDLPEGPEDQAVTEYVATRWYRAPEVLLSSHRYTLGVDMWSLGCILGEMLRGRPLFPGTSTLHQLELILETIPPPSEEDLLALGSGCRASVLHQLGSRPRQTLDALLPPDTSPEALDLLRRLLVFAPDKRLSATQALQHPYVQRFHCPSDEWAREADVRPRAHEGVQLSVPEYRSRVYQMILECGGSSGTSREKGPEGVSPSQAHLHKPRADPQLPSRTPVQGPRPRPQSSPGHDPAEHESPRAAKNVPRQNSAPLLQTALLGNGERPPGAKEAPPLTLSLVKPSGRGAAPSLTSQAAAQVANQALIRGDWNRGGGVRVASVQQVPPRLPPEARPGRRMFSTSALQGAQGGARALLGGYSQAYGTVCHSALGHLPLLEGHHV

PBK/TOPK = target: T2, PBK/TOPK (Homo sapiens, UniProt Q96KB5); conditions: 1 μM; Run 1, Run 2
T2 sequence (Q96KB5 1-322): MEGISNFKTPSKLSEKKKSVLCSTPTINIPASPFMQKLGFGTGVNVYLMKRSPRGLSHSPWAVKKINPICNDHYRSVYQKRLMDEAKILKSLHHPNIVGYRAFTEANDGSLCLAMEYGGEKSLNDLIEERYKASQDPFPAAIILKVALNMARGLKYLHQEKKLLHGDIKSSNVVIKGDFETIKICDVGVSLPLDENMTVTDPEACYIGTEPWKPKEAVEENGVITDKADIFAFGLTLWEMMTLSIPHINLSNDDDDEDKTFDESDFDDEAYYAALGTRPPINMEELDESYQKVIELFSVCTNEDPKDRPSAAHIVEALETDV

PDK1/PDPK1 = target: T3, PDK1/PDPK1 (Homo sapiens, UniProt O15530); conditions: 1 μM; Run 1, Run 2
T3 sequence (O15530 1-556): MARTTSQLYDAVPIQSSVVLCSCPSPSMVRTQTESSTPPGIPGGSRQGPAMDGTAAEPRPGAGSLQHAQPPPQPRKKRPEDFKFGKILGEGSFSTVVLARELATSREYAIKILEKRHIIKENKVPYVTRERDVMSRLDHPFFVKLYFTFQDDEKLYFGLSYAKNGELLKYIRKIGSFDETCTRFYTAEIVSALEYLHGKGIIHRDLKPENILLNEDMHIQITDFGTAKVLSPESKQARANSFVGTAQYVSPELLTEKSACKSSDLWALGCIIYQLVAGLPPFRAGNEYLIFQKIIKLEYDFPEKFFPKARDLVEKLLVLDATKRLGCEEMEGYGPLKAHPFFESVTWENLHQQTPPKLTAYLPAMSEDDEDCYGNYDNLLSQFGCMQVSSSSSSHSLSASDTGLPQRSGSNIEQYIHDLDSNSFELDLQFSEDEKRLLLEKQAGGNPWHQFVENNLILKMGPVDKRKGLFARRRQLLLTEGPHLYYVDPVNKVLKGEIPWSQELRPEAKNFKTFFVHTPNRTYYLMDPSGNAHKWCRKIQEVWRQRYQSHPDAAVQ

TAOK2/TAO1 = target: T4, TAOK2/TAO1 (Homo sapiens, UniProt Q9UL54); conditions: 1 μM; Run 1, Run 2
T4 sequence (Q9UL54 1-1235): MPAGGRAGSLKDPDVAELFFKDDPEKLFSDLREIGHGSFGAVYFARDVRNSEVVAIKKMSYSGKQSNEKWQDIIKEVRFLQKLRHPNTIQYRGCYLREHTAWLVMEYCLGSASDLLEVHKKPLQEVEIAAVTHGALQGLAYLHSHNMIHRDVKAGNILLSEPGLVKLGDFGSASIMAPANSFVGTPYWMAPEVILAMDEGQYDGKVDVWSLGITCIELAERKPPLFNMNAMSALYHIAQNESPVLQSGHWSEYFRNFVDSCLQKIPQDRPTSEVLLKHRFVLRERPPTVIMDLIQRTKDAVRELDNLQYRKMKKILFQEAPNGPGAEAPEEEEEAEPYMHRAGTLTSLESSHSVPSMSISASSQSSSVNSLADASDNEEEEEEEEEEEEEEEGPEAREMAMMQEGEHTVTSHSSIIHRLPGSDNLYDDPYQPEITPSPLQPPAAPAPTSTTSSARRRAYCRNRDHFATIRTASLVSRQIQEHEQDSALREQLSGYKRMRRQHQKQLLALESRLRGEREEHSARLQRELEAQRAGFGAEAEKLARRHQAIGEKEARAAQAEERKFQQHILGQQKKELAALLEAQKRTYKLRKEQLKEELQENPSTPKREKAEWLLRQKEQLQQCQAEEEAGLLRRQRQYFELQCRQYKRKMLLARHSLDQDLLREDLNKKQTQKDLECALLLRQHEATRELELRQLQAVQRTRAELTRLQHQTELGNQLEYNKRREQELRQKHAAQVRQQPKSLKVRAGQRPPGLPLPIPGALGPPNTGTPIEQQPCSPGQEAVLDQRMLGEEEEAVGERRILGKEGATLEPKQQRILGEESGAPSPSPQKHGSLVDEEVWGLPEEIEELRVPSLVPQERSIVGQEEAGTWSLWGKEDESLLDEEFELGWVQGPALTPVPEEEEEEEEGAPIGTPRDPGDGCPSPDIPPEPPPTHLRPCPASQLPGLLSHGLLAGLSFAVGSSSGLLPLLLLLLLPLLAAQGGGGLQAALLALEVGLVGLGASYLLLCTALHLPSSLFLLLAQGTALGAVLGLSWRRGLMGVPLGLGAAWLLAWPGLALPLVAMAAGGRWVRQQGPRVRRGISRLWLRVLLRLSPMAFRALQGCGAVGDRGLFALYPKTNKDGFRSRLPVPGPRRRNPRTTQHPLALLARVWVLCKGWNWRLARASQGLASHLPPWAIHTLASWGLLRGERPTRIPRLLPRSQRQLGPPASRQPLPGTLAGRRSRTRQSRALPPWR

CAMK2d = CAMK2d (Homo sapiens, UniProt Q13557); assay: biochemical; conditions: read-out: % enzyme activity, 1 μM; Run 1, Run 2
Sequence of CAMK2d (Q13557 whole entry): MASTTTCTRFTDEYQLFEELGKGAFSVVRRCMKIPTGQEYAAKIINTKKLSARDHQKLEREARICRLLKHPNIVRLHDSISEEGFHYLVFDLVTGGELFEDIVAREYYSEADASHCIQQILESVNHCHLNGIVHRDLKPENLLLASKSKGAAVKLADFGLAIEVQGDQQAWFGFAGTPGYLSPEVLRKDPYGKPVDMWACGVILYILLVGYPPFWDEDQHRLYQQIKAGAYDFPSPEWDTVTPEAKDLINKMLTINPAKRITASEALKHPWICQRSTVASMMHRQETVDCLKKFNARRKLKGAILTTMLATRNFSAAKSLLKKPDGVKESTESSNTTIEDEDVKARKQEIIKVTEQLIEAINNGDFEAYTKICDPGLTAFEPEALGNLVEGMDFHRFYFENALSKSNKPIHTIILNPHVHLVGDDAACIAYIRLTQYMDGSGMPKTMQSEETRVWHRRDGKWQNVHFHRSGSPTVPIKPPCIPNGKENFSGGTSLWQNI

MLCK/MYLK = MLCK/MYLK (Homo sapiens, UniProt Q15746); assay: biochemical; conditions: read-out: % enzyme activity, 1 μM; Run 1, Run 2
Sequence of MLCK/MYLK (Q15746 whole entry): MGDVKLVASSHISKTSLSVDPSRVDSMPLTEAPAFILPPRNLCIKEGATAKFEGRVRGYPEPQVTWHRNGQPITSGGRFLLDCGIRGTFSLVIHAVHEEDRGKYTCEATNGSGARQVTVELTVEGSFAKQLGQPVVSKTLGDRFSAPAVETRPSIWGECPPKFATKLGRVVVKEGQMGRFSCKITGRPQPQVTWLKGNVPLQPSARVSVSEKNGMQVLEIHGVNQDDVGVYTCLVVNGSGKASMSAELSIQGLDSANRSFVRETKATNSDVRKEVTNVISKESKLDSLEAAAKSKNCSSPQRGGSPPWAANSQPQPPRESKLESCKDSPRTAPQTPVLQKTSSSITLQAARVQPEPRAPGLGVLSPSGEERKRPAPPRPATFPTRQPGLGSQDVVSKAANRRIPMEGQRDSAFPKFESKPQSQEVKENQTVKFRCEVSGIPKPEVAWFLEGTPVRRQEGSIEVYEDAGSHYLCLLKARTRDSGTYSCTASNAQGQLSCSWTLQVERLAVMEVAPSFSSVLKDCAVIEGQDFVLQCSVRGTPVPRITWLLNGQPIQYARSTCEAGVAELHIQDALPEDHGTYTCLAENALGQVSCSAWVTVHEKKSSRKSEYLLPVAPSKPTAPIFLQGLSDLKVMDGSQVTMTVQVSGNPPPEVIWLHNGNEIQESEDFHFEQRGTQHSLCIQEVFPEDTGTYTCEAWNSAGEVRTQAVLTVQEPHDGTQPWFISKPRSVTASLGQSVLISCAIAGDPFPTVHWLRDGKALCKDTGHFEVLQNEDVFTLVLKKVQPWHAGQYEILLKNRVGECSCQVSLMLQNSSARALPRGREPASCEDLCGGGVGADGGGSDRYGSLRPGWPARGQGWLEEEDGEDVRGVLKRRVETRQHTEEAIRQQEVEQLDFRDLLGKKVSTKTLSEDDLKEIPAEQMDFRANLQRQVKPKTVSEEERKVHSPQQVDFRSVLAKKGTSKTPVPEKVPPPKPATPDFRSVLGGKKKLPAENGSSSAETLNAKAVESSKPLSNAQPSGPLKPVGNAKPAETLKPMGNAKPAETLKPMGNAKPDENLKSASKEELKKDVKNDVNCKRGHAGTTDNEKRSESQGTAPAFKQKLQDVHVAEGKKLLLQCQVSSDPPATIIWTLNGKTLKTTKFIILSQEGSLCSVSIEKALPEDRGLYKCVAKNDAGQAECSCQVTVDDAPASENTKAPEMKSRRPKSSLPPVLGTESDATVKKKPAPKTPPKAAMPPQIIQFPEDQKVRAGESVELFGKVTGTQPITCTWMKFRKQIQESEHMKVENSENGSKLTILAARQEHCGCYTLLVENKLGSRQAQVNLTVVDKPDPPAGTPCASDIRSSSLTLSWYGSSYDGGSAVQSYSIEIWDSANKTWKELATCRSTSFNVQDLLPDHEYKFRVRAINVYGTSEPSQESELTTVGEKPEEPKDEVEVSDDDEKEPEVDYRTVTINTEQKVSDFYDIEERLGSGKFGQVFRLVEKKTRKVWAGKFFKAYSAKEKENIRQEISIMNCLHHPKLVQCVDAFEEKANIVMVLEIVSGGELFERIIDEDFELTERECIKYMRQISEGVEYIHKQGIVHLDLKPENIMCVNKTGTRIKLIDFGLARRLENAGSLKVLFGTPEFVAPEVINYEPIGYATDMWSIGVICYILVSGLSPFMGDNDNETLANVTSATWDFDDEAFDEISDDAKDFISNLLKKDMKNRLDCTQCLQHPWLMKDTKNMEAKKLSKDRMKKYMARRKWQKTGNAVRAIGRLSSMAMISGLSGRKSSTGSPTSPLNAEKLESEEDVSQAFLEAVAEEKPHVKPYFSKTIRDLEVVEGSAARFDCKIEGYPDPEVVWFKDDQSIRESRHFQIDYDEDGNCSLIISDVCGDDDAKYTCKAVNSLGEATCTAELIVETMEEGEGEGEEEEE

MLCK2/MYLK2 = MLCK2/MYLK2 (Homo sapiens, UniProt Q9H1R3); assay: biochemical; conditions: read-out: % enzyme activity, 1 μM; Run 1, Run 2
Sequence of MLCK2/MYLK2 (Q9H1R3 whole entry): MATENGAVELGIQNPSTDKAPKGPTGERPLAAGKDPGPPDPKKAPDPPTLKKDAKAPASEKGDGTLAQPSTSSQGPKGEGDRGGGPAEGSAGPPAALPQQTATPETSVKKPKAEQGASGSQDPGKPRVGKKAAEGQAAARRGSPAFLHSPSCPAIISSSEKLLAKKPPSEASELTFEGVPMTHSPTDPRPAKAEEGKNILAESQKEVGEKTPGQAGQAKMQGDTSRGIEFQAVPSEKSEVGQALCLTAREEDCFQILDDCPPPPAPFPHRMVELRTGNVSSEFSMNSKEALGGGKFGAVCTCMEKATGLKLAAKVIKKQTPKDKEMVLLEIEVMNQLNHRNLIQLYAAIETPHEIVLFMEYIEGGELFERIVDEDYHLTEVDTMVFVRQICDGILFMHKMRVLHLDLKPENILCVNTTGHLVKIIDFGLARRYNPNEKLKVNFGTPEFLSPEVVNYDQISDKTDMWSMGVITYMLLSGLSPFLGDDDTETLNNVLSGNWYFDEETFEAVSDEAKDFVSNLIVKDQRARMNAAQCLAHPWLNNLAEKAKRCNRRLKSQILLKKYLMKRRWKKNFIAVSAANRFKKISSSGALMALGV

ZIPK/DAPK3 = ZIPK/DAPK3 (Homo sapiens, UniProt O43293); assay: biochemical; conditions: read-out: % enzyme activity, 1 μM; Run 1, Run 2
Sequence of ZIPK/DAPK3 (O43293 whole entry): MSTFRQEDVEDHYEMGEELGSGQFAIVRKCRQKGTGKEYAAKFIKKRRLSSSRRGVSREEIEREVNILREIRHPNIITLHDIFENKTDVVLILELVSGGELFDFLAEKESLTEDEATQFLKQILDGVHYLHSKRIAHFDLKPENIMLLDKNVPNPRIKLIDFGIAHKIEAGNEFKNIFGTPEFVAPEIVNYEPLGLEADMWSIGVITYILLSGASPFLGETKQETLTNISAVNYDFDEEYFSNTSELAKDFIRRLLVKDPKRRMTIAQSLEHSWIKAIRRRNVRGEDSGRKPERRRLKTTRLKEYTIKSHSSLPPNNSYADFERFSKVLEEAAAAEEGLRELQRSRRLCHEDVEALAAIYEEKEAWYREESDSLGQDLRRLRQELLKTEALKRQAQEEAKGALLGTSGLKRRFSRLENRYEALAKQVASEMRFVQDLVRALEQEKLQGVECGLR

| Structure (SMILES) | % enzyme activity (ERK7/MAPK15) | % enzyme activity (PBK/TOPK) | % enzyme activity (PDK1/PDPK1) | % enzyme activity (TAOK2/TAO1) | remaining activity at 1 µM (CAMK2d) | remaining activity at 1 µM (MLCK/MYLK) | remaining activity at 1 µM (MLCK2/MYLK2) | remaining activity at 1 µM (ZIPK/DAPK3) |
| --- | --- | --- | --- | --- | --- | --- | --- | --- |
| COc1cc(-c2cncc(-c3ccc(N4CCN(C)CC4)cc3)c2C)cc(F)c1C(N)=O [Compound 26a, 2-Fluoro-6-methoxy-4-(4-methyl-5-(4-(4-methylpiperazin-1-yl)phenyl)pyridin-3-yl)benzamide] | 85.69% | 89.81% | 91.49% | 87.58% | 95.1% | 106% | 66.8% | 104% |
| COc1cc(-c2cncc(-c3ccc(N4C[C@@H](C)N(C)[C@@H](C)C4)cc3)c2C)cc(F)c1C(N)=O [Compound 26c, 2-Fluoro-6-methoxy-4-(4-methyl-5-(4-((3R,5S)-3,4,5-trimethylpiperazin-1-yl)phenyl)pyridin-3-yl)benzamide] | 96.45% | 102.56% | 94.36% | 99.37% | 96.2% | 103% | 84.8% | 104% |
